SMILES strings stand for the structures. Where only a bound is given, the exact number is not on record here.

human rhinovirus 16 polymerase (HRV16pol), sequence (Q82122 1694-2153 limits assumed): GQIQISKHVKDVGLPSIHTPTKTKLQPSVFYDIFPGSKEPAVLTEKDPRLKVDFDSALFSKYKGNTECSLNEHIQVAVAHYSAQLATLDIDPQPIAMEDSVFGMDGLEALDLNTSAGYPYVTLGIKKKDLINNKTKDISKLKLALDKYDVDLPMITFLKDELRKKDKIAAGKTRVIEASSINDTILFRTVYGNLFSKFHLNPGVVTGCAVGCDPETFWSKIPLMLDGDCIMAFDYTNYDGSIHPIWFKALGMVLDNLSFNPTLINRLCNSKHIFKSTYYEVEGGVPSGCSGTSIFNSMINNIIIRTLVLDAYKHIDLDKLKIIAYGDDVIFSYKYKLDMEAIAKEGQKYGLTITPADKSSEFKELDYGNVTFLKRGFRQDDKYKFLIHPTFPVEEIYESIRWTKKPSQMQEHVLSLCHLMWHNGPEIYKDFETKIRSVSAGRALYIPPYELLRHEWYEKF

One assay concerns Human rhinovirus 1B. Description: Picornavirus assay with 24 h compound pre-incubation before infection: human rhinovirus 1B in HeLa-OHIO cells, CellTiter-Glo readout. Type of assay: cell-based. Conditions: Rhinovirus A, HeLa-OHIO cells pre-incubated with compound for 24 h before infection, 4 d at 33° C. The protocol: (§1) HeLa-OHIO cells (Sigma-Aldrich, St. Louis, Mo.) were plated in 96 well plates at a density of 1.5×10^5 cells per well in assay media (MEM without phenol red or L-glutamine, supplemented with 1% FBS, 1% penicillin/streptomycin, 2 mM GlutaGro, and 1×MEM nonessential amino acids, all from Cellgro, Manassas, Va.). Assay setup took place after allowing cells to adhere for 24 h. Compounds dissolved in DMSO were serially diluted in assay media to 2× final concentration. Media was aspirated from the cells, and 100 μl media with compound was added in triplicate. Cells were pre-incubated with the diluted compounds for 24 h before infection. Human rhinovirus 1B (ATCC, Manassas, Va.) was diluted in assay media, and 100 μL was added to cells and compound. The virus inoculum was selected to cause 80-90% cytopathic effect in 4 d. Infected cells were incubated for 4 d at 33° C., 5% CO2. To develop the assay, 100 μL media was replaced with 100 μL CellTiter-Glo® reagent (Promega, Madison, Wis.), and incubated for 10 mins at RT. Luminescence was measured on a Victor X3 multi-label plate reader. Compounds of Formula (I) are active in this assay.
Background: ATP-based viability assays read luminescence as a measure of living cells.
The term EC50 denotes the concentration giving half of the maximal effect. Take `C[C@@H]1[C@H](n2ccc(N)nc2=O)O[C@@](CO)(CF)[C@H]1O` [Compound 41]: the EC50 was in the range of 1 to 10 µM.
Same read-out and setting: next, `Nc1ccn([C@@H]2O[C@@](CO)(C(F)F)[C@@H](O)[C@@H]2O)c(=O)n1` [Compound 44]: 10 to 100 µM; `Nc1ccn([C@@H]2O[C@@](CO)(CF)[C@@H](O)[C@@H]2O)c(=O)n1` [Compound 45]: 1 to 10 µM.

Another assay concerns Human rhinovirus 1B. Description: Picornavirus assay: human rhinovirus 1B cytopathic effect in HeLa-OHIO cells, CellTiter-Glo readout. The assay is classed as cell-based. Conditions: Rhinovirus A, 96 h, compound and virus added together, 4 d at 33° C. The protocol: as §1, with “[…]” for “100 μl”, “triplicate.” for “triplicate. Cells were pre-incubated with the diluted compounds for 24 h before infection.”
For orientation: Protection from cytopathic effect is a common read-out in antiviral testing.
Turning to `Nc1ccn([C@@H]2O[C@@](CO)(CF)[C@@H](O)[C@@H]2Cl)c(=O)n1` [Compound 2], the EC50 lay in the range of 1 to 10 µM.
On the same count and under the same terms, next, `Nc1ccn([C@@H]2O[C@@](CO)(CCl)[C@@H](O)[C@@H]2F)c(=O)n1` [Compound 3]: under 1 µM; `[N-]=[N+]=NC[C@]1(CO)O[C@@H](n2ccc(N)nc2=O)[C@@H](F)[C@@H]1O` [Compound 4]: under 1 µM; `Nc1ccn([C@@H]2O[C@@](CO)(CF)[C@@H](O)[C@@H]2F)c(=O)n1` [Compound 7]: under 1 µM.
The same measure, in the same setting: next, `C=C[C@]1(CO)O[C@@H](n2ccc(N)nc2=O)[C@@H](F)[C@@H]1O` [Compound 9]: under 1 µM; `CC[C@]1(CO)O[C@@H](n2ccc(N)nc2=O)[C@@H](F)[C@@H]1O` [Compound 10]: 1 to 10 µM.
With `[N-]=[N+]=NC[C@]1(CO)O[C@@H](n2ccc(N)nc2=O)C[C@@H]1O` [Compound 37], the concentration for a half-maximal effect (EC50) was under 1 µM.

A further assay addresses human rhinovirus 16 polymerase (HRV16pol) (Human rhinovirus 16, UniProt Q82122). Nature of the assay: Picornavirus polymerase inhibition assay: incorporation of tritiated NMP into acid-insoluble RNA products. The assay is classed as biochemical.
Details: not given
The protocol: The enzyme activity of human rhinovirus 16 polymerase (HRV16pol) was measured as an incorporation of tritiated NMP into acid-insoluble RNA products. HRV16pol assay reactions contained 30 Nm recombinant enzyme, 50 Nm heteropolymeric RNA, about 0.5 μCi tritiated NTP, 0.1 Mm of competing cold NTP, 40 Mm Tris-HCl (Ph 7.0), 3 Mm dithiothreitol, and 0.5 Mm MgCl2. Standard reactions were incubated for 2.5 h at 30° C., in the presence of increasing concentration of inhibitor. At the end of the reaction, RNA was precipitated with 10% TCA, and acid-insoluble RNA products were filtered on a size exclusion 96-well plate. After washing of the plate, scintillation liquid was added and radiolabeled RNA products were detected according to standard procedures with a Trilux Microbeta scintillation counter. The compound concentration at which the enzyme-catalyzed rate was reduced by 50% (IC50) was calculated by fitting the data to a non-linear regression (sigmoidal).
A value of ‘A’ in the table below indicates an IC50 of <5 μM, a value of 13′ indicates an IC50<20 μM, and a value of ‘C’ indicates an IC50 value of <100 μM.
Broadly, the IC50 is the midpoint of a concentration-inhibition curve. For `Nc1ccn([C@@H]2O[C@](CF)(COP(=O)(O)OP(=O)(O)OP(=O)(O)O)[C@@H](O)[C@@H]2F)c(=O)n1` [Compound 21], the IC50 is under 5 µM.

The assay is the same for the next values; noted with them: recombinant HRV16pol, 2.5 h at 30° C., mean of several independent experiments; read-out: IC50.
In the case of `Nc1ccn([C@@H]2O[C@](CF)(COP(=O)(O)OP(=O)(O)OP(=O)(O)O)[C@@H](O)[C@@H]2Cl)c(=O)n1` [Compound 16], the IC50 was in the range of 20 to 100 µM.
The same measure, in the same setting: next, `[N-]=[N+]=NC[C@]1(COP(=O)(O)OP(=O)(O)OP(=O)(O)O)O[C@@H](n2ccc(N)nc2=O)[C@@H](F)[C@@H]1O` [Compound 18]: 5 to 20 µM.
On the same count and under the same terms, in the case of `O=c1ccn([C@@H]2O[C@](CCl)(COP(=O)(O)OP(=O)(O)OP(=O)(O)O)[C@@H](O)[C@@H]2F)c(=O)[nH]1` [Compound 19] it was under 5 µM; in that of `Nc1ccn([C@@H]2O[C@](CBr)(COP(=O)(O)OP(=O)(O)OP(=O)(O)O)[C@@H](O)[C@@H]2F)c(=O)n1` [Compound 20], 20 to 100 µM.
Still for that read-out and setting: next, `C#C[C@]1(COP(=O)(O)OP(=O)(O)OP(=O)(O)O)O[C@@H](n2ccc(N)nc2=O)[C@@H](F)[C@@H]1O` [Compound 22]: 5 to 20 µM; `C=C[C@]1(COP(=O)(O)OP(=O)(O)OP(=O)(O)O)O[C@@H](n2ccc(N)nc2=O)[C@@H](F)[C@@H]1O` [Compound 23]: under 5 µM; `CC[C@]1(COP(=O)(O)OP(=O)(O)OP(=O)(O)O)O[C@@H](n2ccc(N)nc2=O)[C@@H](F)[C@@H]1O` [Compound 24]: under 5 µM.
Regarding `C[C@@H]1[C@H](n2ccc(N)nc2=O)O[C@](CF)(COP(=O)(O)OP(=O)(O)OP(=O)(O)O)[C@H]1O` [Compound 47], the IC50 is under 5 µM.
Same read-out and setting: next, `C#C[C@@H]1[C@H](n2ccc(N)nc2=O)O[C@](CF)(COP(=O)(O)OP(=O)(O)OP(=O)(O)O)[C@H]1O` [Compound 48]: under 5 µM; `Nc1ccn([C@@H]2O[C@](CF)(COP(=O)(O)OP(=O)(O)OP(=O)(O)O)[C@@H](O)[C@@H]2CF)c(=O)n1` [Compound 50]: 5 to 20 µM; `Nc1ccn([C@@H]2O[C@@](COP(=O)(O)OP(=O)(O)OP(=O)(O)O)(C(F)F)[C@@H](O)[C@@H]2O)c(=O)n1` [Compound 52]: under 5 µM.
As for `Nc1ccn([C@@H]2O[C@](CF)(COP(=O)(O)OP(=O)(O)OP(=O)(O)O)[C@@H](O)[C@@H]2O)c(=O)n1` [Compound 53], the IC50 is under 5 µM.
On the same count and under the same terms, next, `Nc1ccn([C@H]2C[C@H](O)[C@](COP(=O)(O)OP(=O)(O)OP(=O)(O)O)(C(F)F)O2)c(=O)n1` [Compound 54]: under 5 µM.
